Laboratory results taken from PMC10144134, “Characterization of Potent ABCG2 Inhibitor Derived from Chromone: From the Mechanism of Inhibition to Human Extracellular Vesicles for Drug Delivery” (Pharmaceutics, 2023).
Entries after “also recorded” stand apart in the source; their conditions may differ.

Tests used:
ABCG2 = target: T1, ABCG2 (Homo sapiens, UniProt Q9UNQ0); assay: Cell-based transport assay by flow cytometry, HEK293-ABCG2; set-up: expressed in transfected cells; host or cells: HEK293 (stably transfected, G418 selection; gift of Dr. Attilio Di Pietro)
T1 sequence (Q9UNQ0 1-655): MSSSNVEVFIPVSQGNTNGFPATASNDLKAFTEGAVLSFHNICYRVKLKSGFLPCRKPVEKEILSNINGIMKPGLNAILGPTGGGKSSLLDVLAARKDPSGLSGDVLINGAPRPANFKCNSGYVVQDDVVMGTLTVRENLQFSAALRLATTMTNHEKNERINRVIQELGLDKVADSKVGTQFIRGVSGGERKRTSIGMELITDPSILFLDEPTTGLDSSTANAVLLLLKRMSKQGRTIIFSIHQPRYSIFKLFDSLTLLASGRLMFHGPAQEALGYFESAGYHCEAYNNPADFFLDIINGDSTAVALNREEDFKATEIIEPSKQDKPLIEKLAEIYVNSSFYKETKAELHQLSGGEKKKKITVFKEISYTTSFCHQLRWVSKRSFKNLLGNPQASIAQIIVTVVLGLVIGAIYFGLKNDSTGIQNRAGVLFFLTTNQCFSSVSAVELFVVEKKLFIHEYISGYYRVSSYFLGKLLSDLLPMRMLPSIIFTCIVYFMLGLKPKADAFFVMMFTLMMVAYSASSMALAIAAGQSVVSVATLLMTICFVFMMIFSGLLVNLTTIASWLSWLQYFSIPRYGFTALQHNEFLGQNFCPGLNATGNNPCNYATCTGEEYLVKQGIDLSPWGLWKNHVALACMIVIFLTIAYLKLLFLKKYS
Experimental: (§1) Cell lines (HEK293-ABCG, NIH3T3-ABCB1 and BHK21-ABCC1) were kept at 37 °C in the presence of 5% CO2 in DMEM high glucose (Gibco, Sao Paulo, Brazil) supplemented with 10% Fetal Bovine Serum (Gibco, Sao Paulo, Brazil) and 1% antibiotic (penicillin/streptomycin–Hyclone Laboratories, Logan, UT, USA). The stably transfected cells were kept with specific selection agent for each ABC transporter: ABCG2–G418 0.75 mg/mL, P-gp–Colchicine 60 ng/mL, MRP1–Methotrexate 0.1 mg/mL. The cells HEK293-ABCG2, NIH3T3-ABCB1 and BHK21-ABCC1, overexpressing ABCG2, P-gp and MRP1, respectively, were kindly provided by Dr. Attilio Di Pietro (IBCP, Lyon, France).
Cells were seeded into 24-well plates at a density of 1 × 10^5 cells/well and incubated for 48 h at 37 °C and 5% of CO2. When the confluence reached 90–95%, the medium was removed and the cells were exposed to inhibitors and substrates for 30 min at 37 °C. Then, the cell monolayer was washed with PBS at 37 °C, trypsinized and resuspended with 300 µL of cold PBS. The intracellular fluorescence was recorded by flow cytometry (FACS Calibur–Becton Dickinson, San Diego, CA, USA). At least 10,000 events were acquired. […] The inhibition percent was calculated as follows: % of inhibition = ((C − S))/((I − S)) × 100, where “C” represents the treatment with substrate + compound in test, “S” represents the treatment with substrate alone and “I” represents the treatment with substrate + reference inhibitor.
This study was approved by the Ethics Committee of SCS/UFPR (CAAE 51428521.2.0000.0102). Human blood (9 mL) was collected in tubes containing 8 mM of EGTA and centrifuged at 425× g for 10 min at room temperature. Human plasma (~4 mL) was separated in a new tube. In the tube containing blood cells (~5 mL), the same volume of RPMI (~5 mL) was added. The material was homogenized and centrifuged at 425× g for 10 min at room temperature. The supernatant was discarded, and the pellet of cells was centrifuged again at 425× g for 10 min, then, the supernatant was discarded, and the pellet was suspended in 5 mL of RPMI containing 2 mM of CaCl2. After 1 h of incubation at 37 °C, the material was centrifuged at 425× g for 10 min at 10 °C. Additionally, the tube containing the human plasma was also centrifuged at 425× g for 10 min at 10 °C. The supernatant from both tubes (human cells and plasma) was centrifuged at 4000 g for 10 min at 10 °C. The supernatant was separated and centrifuged at […] for 120 min at 10 °C. The supernatant was discarded and the pellet containing the vesicles was suspended in 60 µL of PBS. The protein concentration was quantified by Bradford assay. For each condition, 10 µL of the vesicles in PBS was diluted by adding 190 µL of PBS. […]

Water solubility = type: physicochemical; conditions: aqueous
P-gp = P-gp (Homo sapiens, UniProt P08183); assay: Cell-based transport assay by flow cytometry, NIH3T3-ABCB1; conditions: 10 µM, rhodamine 123 10 µM
Chain of P-gp (P08183 whole entry): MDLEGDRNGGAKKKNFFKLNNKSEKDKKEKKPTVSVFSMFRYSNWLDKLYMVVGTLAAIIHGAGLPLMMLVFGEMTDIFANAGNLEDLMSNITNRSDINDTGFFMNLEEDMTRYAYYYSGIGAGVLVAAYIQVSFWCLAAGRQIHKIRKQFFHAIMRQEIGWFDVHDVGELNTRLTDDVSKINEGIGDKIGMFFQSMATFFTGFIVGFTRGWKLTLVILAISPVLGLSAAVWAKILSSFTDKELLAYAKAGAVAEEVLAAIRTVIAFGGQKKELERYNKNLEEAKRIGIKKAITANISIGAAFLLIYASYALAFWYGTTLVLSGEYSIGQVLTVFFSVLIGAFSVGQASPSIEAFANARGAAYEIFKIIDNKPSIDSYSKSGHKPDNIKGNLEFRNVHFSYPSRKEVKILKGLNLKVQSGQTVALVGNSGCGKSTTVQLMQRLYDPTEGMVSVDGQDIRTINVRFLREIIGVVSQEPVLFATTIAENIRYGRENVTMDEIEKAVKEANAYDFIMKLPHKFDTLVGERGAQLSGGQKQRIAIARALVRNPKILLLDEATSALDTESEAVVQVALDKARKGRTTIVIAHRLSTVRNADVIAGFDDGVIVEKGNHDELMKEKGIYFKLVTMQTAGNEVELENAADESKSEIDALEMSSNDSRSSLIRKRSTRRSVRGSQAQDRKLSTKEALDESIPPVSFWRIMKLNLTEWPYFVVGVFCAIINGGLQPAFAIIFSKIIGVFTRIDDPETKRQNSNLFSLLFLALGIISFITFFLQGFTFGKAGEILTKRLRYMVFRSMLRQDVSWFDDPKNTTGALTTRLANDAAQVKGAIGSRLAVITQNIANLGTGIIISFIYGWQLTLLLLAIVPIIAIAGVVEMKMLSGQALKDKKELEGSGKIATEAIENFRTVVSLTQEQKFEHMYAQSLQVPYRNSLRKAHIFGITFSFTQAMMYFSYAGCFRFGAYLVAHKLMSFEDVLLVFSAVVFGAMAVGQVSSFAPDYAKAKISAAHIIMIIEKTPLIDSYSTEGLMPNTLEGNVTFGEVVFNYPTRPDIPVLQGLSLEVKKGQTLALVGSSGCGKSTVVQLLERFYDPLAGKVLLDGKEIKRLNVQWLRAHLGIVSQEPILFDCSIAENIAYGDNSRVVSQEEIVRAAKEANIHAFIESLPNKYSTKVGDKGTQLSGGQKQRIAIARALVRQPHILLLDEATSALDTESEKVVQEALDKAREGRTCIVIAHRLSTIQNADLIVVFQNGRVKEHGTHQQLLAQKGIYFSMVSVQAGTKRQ
Experimental: as §1
Cells were seeded into 24-well plates at a density of 1 × 10^5 cells/well and incubated for 48 h at 37 °C and 5% of CO2. […] The intracellular fluorescence was recorded by flow cytometry (FACS Calibur–Becton Dickinson, San Diego, CA, USA). […] The inhibition percent was calculated as follows: % of inhibition = ((C − S))/((I − S)) × 100, where “C” represents the treatment with substrate + compound in test, “S” represents the treatment with substrate alone and “I” represents the treatment with substrate + reference inhibitor.
This study was approved by the Ethics Committee of SCS/UFPR (CAAE 51428521.2.0000.0102). […] The protein concentration was quantified by Bradford assay. […]

## COc1ccc2[nH]cc(CCNC(=O)c3cc(=O)c4c(OCc5ccccc5Br)cccc4o3)c2c1 [C4a, chromone 4a]
ABCG2; 10 µM, bodipy-prazosin 0.2 µM
  inhibition of bodipy-prazosin efflux mediated by ABCG2: inhibited the efflux of all
ABCG2; 10 µM, mitoxantrone 10 µM, HEK293-ABCG2
  inhibition of mitoxantrone efflux mediated by ABCG2: completely inhibited; also recorded: inhibited the efflux of all
ABCG2; 10 µM, pheophorbide a 10 µM
  inhibition of pheophorbide-a efflux mediated by ABCG2: inhibited the efflux of all
ABCG2; C4a free in supernatant, even at lower concentration tested 0.1 µM
  inhibition of ABCG2 by supernatant (human EV preparation): strongly inhibited ABCG2
Water solubility
  solubility: low solubility
P-gp
  inhibition of rhodamine 123 efflux mediated by P-gp: did not inhibit
